Data reported in patent publication US8211646B1, “Methods of treating ovarian cancer by modulating SnoN” (University of South Florida, priority 2008, dated 2012).

Legend:
Type in all cases: cell-based
[1] = system: LC3-I/LC3-II, autophagosomes; assay: Autophagy: LC3 western, EGFP-LC3 fluorescence, TEM of autophagosomes
Experimental: (§1) Proteins were resolved on an 8%, 12%, or 15% SDS-PAGE gel (as appropriate) and electrophoretically transferred to polyvinyldifluoride (PVDF) membranes. After blocking with 5% (w/v) milk in TBST (Tris-Buffered Saline containing 0.1% Tween-20) for one hour at room temperature, membranes were incubated with primary antibodies (at appropriate dilution) overnight at 4° C., followed by extensive washing and incubation for 1 hour with the appropriate horseradish peroxidase-conjugated secondary antibodies (BioRad, Hercules, Calif.). Blots were washed extensively. A rabbit polyclonal EVI1 antibody was obtained (1:3000 dilution, St. Jude's Children's Hospital, Memphis, Tenn.). SnoN rabbit polyclonal (1:1000 dilution), PML, and p21 SMURF2 rabbit polyclonal (1:500 dilution), MRP1 mouse monoclonal (1:500 dilution) and GAPDH mouse monoclonal (1:250 dilution) antibodies were obtained from Santa Cruz Biotechnology (Santa Cruz, Calif.). TGFβRII rabbit polyclonal (1:1000 dilution) antibody was obtained from Strategic Diagnostics (Newark, Del.). Smad2/3 rabbit polyclonal (1:1000 dilution), Beclin-1 rabbit polyclonal (1:1000 dilution), AKT rabbit polyclonal (1:1000 dilution), TAK1 rabbit polyclonal (1:1000 dilution), PARP rabbit polyclonal (1:1000 dilution), Beclin-1 rabbit polyclonal (1:1000 dilution), caspase-3 rabbit polyclonal (1:1000) which detects the pro-caspase form, and ATG5 rabbit polyclonal (1:1000 dilution), LC3-II rabbit polyclonal (1:1000 dilution) antibodies were obtained from Cell Signaling Technology (Danvers, Mass.). The HSP27 mouse monoclonal (1:1000 dilution) antibody was obtained from Stressgen (Ann Arbor, Mich.). Blots were developed using chemiluminescence substrates (Amersham Piscataway, N.J. or BioRad, Hercules, Calif.). Monoclonal PAI-1 antibody was obtained from BD Pharmingen. PSMAD2, total SMAD2/3, p-ERK, p-AKT, and total AKT antibodies were obtained from Cell Signaling Technology. A monoclonal antibody against Arkadia was obtained from Abnova (Taiwan).
HEY cells were seeded onto glass coverslips and allowed to adhere following overnight incubation. The cells were then transiently transfected with EGFP-LC3 (Addgene, Cambridge, Mass.) and allowed to recover for 24 hours. The cells were treated at the appropriate concentrations of As2O3 in the absence or presence of 3-MA (5 and 10 mM), for 18 hours. The cells were then fixed in 4% paraformaldehyde in PBS for 30 minutes at room temperature, washed twice in PBS, and blocked for 1 hour at room temperature in PBS containing 5% goat serum and 0.1% Triton X-100. The cells were counterstained with Hoescht nuclear stain, washed 3 times for 5 minutes in PBS, anti-Fade containing DAPI nuclear stain was then applied, and coverslips mounted onto glass slides and viewed under a Zeiss inverted fluorescence microscope (Moffitt Cancer Center Microscopy Core).
Autophagy induction was analyzed using electron microscopy. […] Cells were then fixed in 2.5% glutaraldehyde in 0.1M phosphate buffer overnight at 4° C. Following rinsing in buffer, cells were scraped from the culture flasks, washed, and then post-fixed in 1% osmium tetroxide in buffer. After dehydration in a graded series of acetone, the cells were embedded in Embed 812 epoxy resin. Thin sections (70 nm) were cut on an Ultramicrotome. The sections on the grids were stained with uranyl acetate and lead citrate. The sections were examined on a Transmission Electron Microscope (Morgagni 268D).

[2] = system: immortalized and cancer ovarian cell lines; assay: Boyden chamber migration assay; conditions: 5 μM As2O3 6 hours, then 18 hours in Boyden chamber
Experimental: FIGS. 25(A) through (C) are graphs showing arsenic trioxide induces cell death and inhibits migratory potential. HEY cells were treated for 6 hours with 5 μM As2O3 and seeded at 25,000 cells into Boyden chamber inserts for 18 hours. Cells were stained with crystal violet and counted.
TAg/hTert immortalized normal ovarian epithelial cells (TIOSE: T29 and T80) and ovarian cancer cells (OVCAR8, OVCA429, SKOV3, and HEY) were transfected with siRNA were counted 24 h post-transfection and 5000 cells were plated in each well of a 96-well plate maintained in 10% FBS. At various days, cells were fixed and stained with crystal violet solution, dissolved in Sorenson's buffer, and absorbance measured at 570 nm. To assess migration, cells transfected with siRNA were counted 24 h post-transfection and seeded into Boyden chamber inserts in serum-free media. FBS in the lower chamber media (RPMI 1640) was used as a chemoattractant for 24 h. The cells that migrated onto the lower membrane were stained with crystal violet, photographed, and counted.

SnoN = assay: Western analysis of SnoN protein levels; conditions: for concentration at which induction of SnoN occurred: 18 hours
Experimental: as §1
Densitometric analysis was performed using the HP Scanjet 5590 and the Image J program (Image Processing and Analysis in Java, NIH Image Software). Bands were selected and the intensity values were normalized to those for GAPDH. The values are presented as fold-changes relative to control siRNA treated cells.
The clinical inhibitors As2O3, geldanamycin (17-AAG) (dissolved in dimethylsulfoxide [DMSO]), and MG132 (dissolved in DMSO) were obtained from Sigma-Aldrich (St. Louis, Mo.), Fisher Scientific (Pittsburgh, Pa.), and Alexis Biochemicals (Farmingdale, N.Y.), respectively. N-acetyl-L-cysteine (NAC; dissolved in media) and Bortezomib (PS-341; dissolved in DMSO) were obtained from Fisher Scientific. 3-Methyladenine (3-MA; dissolved in media) was obtained from MP Biomedicals (Solon, Ohio). Tiron (4,5-Dihydroxy-1,3-benzenedisulfonic acid, dissolved in media) was obtained from Fisher Scientific. zVAD-fmk (dissolved in DMSO) and bafilomycin A (dissolved in DMSO) was obtained from Axxora LLC (San Diego, Calif.). Bovine catalase was obtained from Sigma-Aldrich. HBED and Mn TBAP was obtained from ENZO Life Sciences (Farmingdale, N.Y.). Ovarian cells were plated in 6-well plates at 250,000 cells per well and grown in complete medium. […] For control cells, DMSO (a final concentration of <0.5%) was added to compare appropriately to drugs dissolved in DMSO. After the appropriate incubation time (6 or 18 hours), cell lysates were collected, protein quantified, and SDS-PAGE/western analysis was performed. In addition, for selected studies, RNA was isolated, quantified, and used for qPCR analysis.

## Arsenic trioxide [As2O3]
[1]; As2O3, 18 hours, correlated with SnoN expression
  levels of LC3-I and LC3-II: increased
[1]; HEY, As2O3 between 5 μM to 25 μM, data not shown
  EGFP-LC3 staining pattern: punctuate staining pattern around the nucleus
[1]; HEY, data not shown
  autophagosomes by TEM: numerous double membrane autophagosomes
[2]
  reduction of migratory potential: more than fifty percent
SnoN; HEY and OVCA429, 18 hours, increasing doses
  SnoN/SkiL protein levels: significantly increased
SnoN; HEY and SKOV3 cells
  concentration at which induction of SnoN occurred: > 25 µM
SnoN; HEY, time course
  time of As2O3 treatment at which induction of SnoN was seen: 9 h
SnoN; T80 cells
  concentration at which induction of SnoN occurred: 10 µM
